IC50 data for 17 molecules are collected here from patent publication US11077113B2, “6-aryl-4-morpholin-1-ylpyridone compounds useful for the treatment of cancer and diabetes” (priority 2016, dated 2021).

The IC50 is the midpoint of a concentration-inhibition curve.

The target in experiment [1] is Vps34 enzyme (Homo sapiens (Human), UniProt Q8NEB9). Description: Vps34 Biochemical Assay (Adapta TR-FRET). As to conditions: 20 μM ATP and 200 μM PI:PS in substrate mix, 1 h at room temperature, read-out: Median IC50 μM Adapta. The method, then:
Dilution series of compounds of the invention were prepared in DMSO at 100 times the final assay concentration (n1=n0/3 in 10 points). The compounds were further diluted to 4 times the assay concentration in assay buffer (Life technologies buffer Q, PV5125, diluted 5 times supplemented with 2 mM DTT and 2 mM MnCl2). 2.5 μl of the diluted compounds were added to a 384 well assay plate followed by 2.5 μl of 16.5 nM Vps34 enzyme (Life technologies, PV5126). Enzyme and compounds were preincubated at rt for 15 min. Then 5 μl of substrate mix containing 20 μM ATP (Life technologies, PV3227) and 200 μM PI:PS substrate (Life technologies, PV5122) in assay buffer was added to the wells containing compound and enzyme and mixing was performed by pipetting several times. The reaction was incubated at room temperature for 1 h. Then 5 μl stop-detection mix, prepared as described in the adapta kinase assay kit instructions (Life technologies, PV5099) containing Adapta Eu-anti-ADP antibody (2.3 nM), Alexa Fluor 647 ADP tracer (9 nM) and EDTA (30 mM) in TR-FRET buffer, was added to quench the reaction. Mixing was performed by pipetting several times. The assay plate was then incubated at room temperature for 30 min and read with Artemis micro plate reader. Percent inhibition of the compounds as compared to DMSO treated control samples was calculated. By the use of Dotmatics software compound concentration versus percent inhibition was fitted to generate IC50 values.
A general note: TR-FRET usually uses a lanthanide donor and a delayed reading to cut background.

For experiment [2], the system named is autophagy in HOS cells. The experiment can be described thus: High Content Screening Autophagy Assay (GFP-LC3 foci). Type of experiment: cell-based. The following applies: Homo sapiens; HOS cells expressing GFP-LC3; autophagy activated with KU-0063794 500 nM plus Bafilomycin A1 5 nM; 6 hours; foci area per cell; read-out: Median IC50 μM Cellular assay. The procedure: High Content Screening Autophagy Assay
Human osteosarcoma cells (HOS) stably expressing a Green Fluorescent Protein (GFP) tagged LC3 (GFP-LC3) were used to determine the inhibitory effect on autophagy of proprietary compounds. For that purpose, autophagy was activated by using the mTOR inhibitor KU-0063794 at 500 nM in the presence of Bafilomycin A1 (Sigma-Aldrich) at 5 nM. Shortly, cells were plated overnight in clear bottom 96-well plates in DMEM-High Modified media (Hi-Clone Cat #SH30285.01). At the start of the experiment, the media was removed and replaced with fresh media containing the mTOR inhibitor, Bafilomycin A1 and the vehicle or a test compound as indicated. After 6 hours the media was removed, cells were washed twice with ice-cold phosphate buffered saline (PBS) and fixed with 4% paraformaldehyde for 20 minutes at room temperature. Then the cells were washed twice with ice-cold PBS before adding Hoechst 33342 at 1 μg/ml in PBS for nuclear staining. After incubation overnight at 4° C., cells were washed once with PBS to remove the excess of dye and 100 μl of PBS was added to each well. Images were acquired at 20× magnification, 6 images per well, using the ImageXpress automated microscope (Molecular Devices Inc.) and analyzed with MetaXpress software to identify LC3-GFP foci. Foci area per cell values were used to generate dose response curves and IC50 calculated using non-linear fitting analysis in GraphPad Prism software.
The results of the assay are shown in Table 2 (Median IC50 μM Cellular assay).

Vps34 enzyme, sequence (Q8NEB9 whole entry): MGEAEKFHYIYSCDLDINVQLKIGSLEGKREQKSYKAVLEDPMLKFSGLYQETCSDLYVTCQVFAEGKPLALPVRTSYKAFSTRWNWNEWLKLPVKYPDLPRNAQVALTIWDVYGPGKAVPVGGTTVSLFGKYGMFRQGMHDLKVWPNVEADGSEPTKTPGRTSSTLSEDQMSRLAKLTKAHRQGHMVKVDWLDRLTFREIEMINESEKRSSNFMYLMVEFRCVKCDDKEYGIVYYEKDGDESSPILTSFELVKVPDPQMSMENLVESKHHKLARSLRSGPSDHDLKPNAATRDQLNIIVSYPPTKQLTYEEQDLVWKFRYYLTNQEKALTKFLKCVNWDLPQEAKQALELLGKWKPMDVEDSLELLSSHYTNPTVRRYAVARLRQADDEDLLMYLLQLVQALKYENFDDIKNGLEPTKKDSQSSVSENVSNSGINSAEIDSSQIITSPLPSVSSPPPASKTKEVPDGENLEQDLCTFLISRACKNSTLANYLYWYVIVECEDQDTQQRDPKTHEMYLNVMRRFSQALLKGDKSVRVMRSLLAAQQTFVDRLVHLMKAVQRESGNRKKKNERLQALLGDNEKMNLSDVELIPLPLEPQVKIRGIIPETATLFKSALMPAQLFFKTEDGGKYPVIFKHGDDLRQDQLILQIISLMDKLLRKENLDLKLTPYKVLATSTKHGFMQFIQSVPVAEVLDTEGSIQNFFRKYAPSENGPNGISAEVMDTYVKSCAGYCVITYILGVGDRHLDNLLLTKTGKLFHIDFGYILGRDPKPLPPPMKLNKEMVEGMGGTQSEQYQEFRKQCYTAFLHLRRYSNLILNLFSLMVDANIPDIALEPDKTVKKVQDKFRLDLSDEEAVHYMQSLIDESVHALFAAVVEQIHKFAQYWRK

On to `C[C@@H]1COCCN1c1cc(-c2ccccc2C(F)(F)F)[nH]c(=O)c1` [Example 12, 4-[(3R)-3-methylmorpholin-4-yl]-6-[2-(trifluoromethyl)phenyl]-1H-pyridin-2-one], for which the IC50 worked out at 0.007 µM in experiment [1] and 0.6 µM in experiment [2]. Consider `C[C@@H]1COCCN1c1cc(-c2ccc(-c3ccn[nH]3)cc2)[nH]c(=O)c1` [Example 17, 4-[(3R)-3-methylmorpholin-4-yl]-6-[4-(1H-pyrazol-5-yl)phenyl]-1H-pyridin-2-one], for which the IC50 in experiment [1] was 0.2 µM. Regarding `Cc1cscc1-c1cc(N2CCOC[C@H]2C)cc(=O)[nH]1` [Example 14, 4-[(3R)-3-methylmorpholin-4-yl]-6-(4-methyl-3-thienyl)-1H-pyridin-2-one], the IC50 in experiment [1] stood at 0.03 µM.

For `C[C@@H]1COCCN1c1cc(-c2cccnc2C(F)(F)F)[nH]c(=O)c1` [Example 10, 4-[(3R)-3-methylmorpholin-4-yl]-6-[2-(trifluoromethyl)-3-pyridyl]-1H-pyridin-2-one], the IC50 was 0.02 µM in experiment [1] and 0.09 µM in experiment [2]. As to `CC1COCCN1c1cc(-c2ccccc2Cl)n(C)c(=O)c1` (stereo not drawn) [Example 4, 6-(2-chlorophenyl)-1-methyl-4-(3-methylmorpholin-4-yl)pyridin-2-one], the IC50 in experiment [1] turned out to be 0.02 µM; in experiment [2], 1 µM. For the molecule `O=c1cc(N2CCOCC2)cc(-c2ccccc2Cl)[nH]1` [Example 1, 6-(2-chlorophenyl)-4-morpholino-1H-pyridin-2-one], the IC50 was 0.03 µM in experiment [1] and 2 µM in experiment [2]. Regarding `C[C@@H]1COCCN1c1cc(-c2cc(F)ccc2Cl)[nH]c(=O)c1` [Example 8, 6-(2-chloro-5-fluoro-phenyl)-4-[(3R)-3-methylmorpholin-4-yl]-1H-pyridin-2-one], the IC50 stood at 0.01 µM in experiment [1] and 1 µM in experiment [2]. Turning to `C[C@@H]1COCCN1c1cc(-c2ccccc2Cl)[nH]c(=O)c1` [Example 11, 6-(2-chlorophenyl)-4-[(3R)-3-methylmorpholin-4-yl]-1H-pyridin-2-one], the IC50 is 0.007 µM in experiment [1] and 0.6 µM in experiment [2]. On to `CC1COCCN1c1cc(-c2ccccc2-c2ccccc2)[nH]c(=O)c1` (stereo not drawn) [Example 7, 4-(3-methylmorpholin-4-yl)-6-(2-phenylphenyl)-1H-pyridin-2-one], for which the IC50 in experiment [1] was 0.06 µM. Take `CC1COCCN1c1cc(-c2ccccc2Cl)[nH]c(=O)c1` (stereo not drawn) [Example 3, 6-(2-chlorophenyl)-4-(3-methylmorpholin-4-yl)-1H-pyridin-2-one]: the IC50 stood at 0.01 µM in experiment [1] and 0.7 µM in experiment [2].

On to `Cc1ccccc1-c1cc(N2CCOC[C@H]2C)cc(=O)[nH]1` [Example 9, 4-[(3R)-3-methylmorpholin-4-yl]-6-(o-tolyl)-1H-pyridin-2-one], for which, in experiment [1], the IC50 came to 0.03 µM. Consider `CC1COCCN1c1cc(-c2cncnc2)[nH]c(=O)c1` (stereo not drawn) [Example 6, 4-(3-methylmorpholin-4-yl)-6-pyrimidin-5-yl-1H-pyridin-2-one], for which the IC50 in experiment [1] is 1 µM; in experiment [2], 14 µM.

In the case of `Cc1ccc2ncccc2c1-c1cc(N2CCOC[C@H]2C)cc(=O)[nH]1` [Example 16, 4-[(3R)-3-methylmorpholin-4-yl]-6-(6-methyl-5-quinolyl)-1H-pyridin-2-one], in experiment [1], the IC50 turned out to be 0.2 µM. For `Cc1ccncc1-c1cc(N2CCOCC2C)cc(=O)[nH]1` (stereo not drawn) [Example 5, 4-(3-methylmorpholin-4-yl)-6-(4-methyl-3-pyridyl)-1H-pyridin-2-one], the values for the IC50 in experiment [1] and in experiment [2] were 0.1 µM and 14 µM, respectively. On to `C[C@@H]1COCCN1c1cc(-c2ccoc2)[nH]c(=O)c1` [Example 13, 6-(3-furyl)-4-[(3R)-3-methylmorpholin-4-yl]-1H-pyridin-2-one], for which the IC50 in experiment [1] turned out to be 0.2 µM.

With `Cn1c(-c2ccccc2Cl)cc(N2CCOCC2)cc1=O` [Example 2, 6-(2-chlorophenyl)-1-methyl-4-morpholino-pyridin-2-one], the IC50 in experiment [1] amounted to 0.05 µM; in experiment [2], 3 µM. In the case of `C[C@@H]1COCCN1c1cc(-c2ccccc2NS(C)(=O)=O)[nH]c(=O)c1` [Example 15, N-[2-[4-[(3R)-3-methylmorpholin-4-yl]-6-oxo-1H-pyridin-2-yl]phenyl]methanesulfonamide], in experiment [1], the IC50 was 0.2 µM.
